The subject of one experiment is tau. Description: Phospho-tau (pThr231, pSer396) and total tau ELISA in RA-SY5Y lysates. It counts as cell-based, human. As to conditions: 6 h, FIG. 3; for effect of lipid insult on tau phosphorylation (pTau231, pTau396): no Leptin, normalized to total tau. Here is the method: (§1) RA-SY5Y were treated with Leptin (100 ng/ml) in the presence of ceramide (25 μM), cholesterol (27.5 μg/mL), oleic acid (30 μg/mL) or vehicle (MβCD—675 μg/mL; or DMSO—0.125%) for 6 h, and then harvested by scraping. Preparation of whole cell lysates from cell pellets was performed as described previously (32).
Aβ(1-40) levels in cell culture media from SY5YAPP751 cells treated for 18 h with the aforementioned metabolic insults in the presence or absence of Leptin, were determined using the Human βAmyloid 1-40 ELISA kit (Invitrogen; Carlsbad, Calif.), and phospho- and total tau levels in RASY5Y lysates were determined using the Human Tau pSer396, pThr231 and Total Tau ELISA kits (Invitrogen) according to manufacturer's specific instructions. Aβ(1-40), phosho- and total tau levels were calculated from a standard curve developed with OD at 450 nm using 8 serial dilutions of known concentration.
Metabolic stress has been linked to the activation of AD pathological pathways, with lipids known to play an important role (21-23). We therefore investigated the extent to which lipids can induce hyperphosphorylation of tau (FIG. 3) and AP production (FIG. 4) in neuronal cells, and determined whether Leptin could prevent these effects. Utilizing similar lipid doses as previous experiments, RA-SY5Y were treated for 6 h with Leptin (100 ng/mL) or control in the presence or absence of ceramide, cholesterol or oleic acid, and phosphorylation of tau at two different epitopes, pTau231 (FIG. 3A) or pTau396 (FIG. 3B), as well as total tau measured by ELISA.
In general terms: ELISA stands for enzyme-linked immunosorbent assay.

The subject of experiment [1] is AMP-activated protein kinase (AMPK). The experiment in a line: AMPK activity assay in lysates of treated RA-SY5Y cells (CycLex kit, Compound C-sensitive kinase activity). The settings on record: 6 h, FIG. 2A. Type of experiment: cell-based, human. Here is the method: as §1
AMPK activity in RA-SY5Y cell lysates was determined using the CycLex AMPK Kinase Assay Kit (MBL International; Woburn, Mass.), as previously described (33, 34). Briefly, “relative AMPK activity”, hereafter referred to as “AMPK activity”, is defined as Compound C-sensitive protein kinase activity in cell lysates. […] Lysates were incubated in the presence or absence of 10 μM Compound C, and protein kinase activity determined by measuring phosphorylation of the Insulin Receptor Substrate-I (IRS-1) through immunoassay and conversion of a chromogenic substrate at an absorbance of 450 nm (Ai50). […]
We have previously shown that Leptin regulates AD pathways via activation of the cellular energy sensors, AMP-activated protein kinase (AMPK) and the sirtuins (SIRT) in neuronal cells (35, 36). To this end, we determined whether Leptin has the ability to attenuate these effects on cellular energetics in an acute model of metabolic stress (FIG. 2). […]

Another experiment deals with Aβ. The settings on record: neurons; cited from earlier work.
For experiment [2] the following is noted: mice having mutations on the ob gene, administration of leptin; cited from earlier work.
Another experiment concerns sirtuins (SIRT). The experiment in a line: SIRT (total sirtuin) activity assay in lysates of treated RA-SY5Y cells (nicotinamide-sensitive deacetylase activity). Type of experiment: cell-based, human. As to conditions: Leptin 100 ng/mL, 6 h, with ceramide, cholesterol or oleic acid, FIG. 2B. The procedure: as §1
“Total sirtuin”, hereafter termed “SIRT’, activity in cell lysates was determined using the HDAC Fluorimetric Cellular Activity Assay Kit (Enzo Life Sciences; Plymouth Meeting, Pa.), according to manufacturer's specified guidelines. Briefly, SIRT activity is defined as nicotinamide-sensitive deacetylase (class III HDAC) activity in cell lysates. 5 mM nicotinamide was identified by the manufacturer as a dose in which there was no further reduction in deacetylase activity upon increasing concentration. RA-SY5Y cell lysates were incubated in the presence or absence of 5 mM nicotinamide, and SIRT activity determined by adding the Flour de Lys Substrate for deacetylation followed by exposure to the Fluor de Lys Developer to generate a fluorescent signal for detection using a fluorimeter (EX−350-380 nm/Em440-460 nm). Normalized SIRT activity was measured in units of fluorescence intensity (Fi) and defined as: (Filysate−Filysate+nicotinamide)/μg proteinlysate. […]

A further experiment relates to RA-SY5Y cells. Description: Cell viability assay (Cell-Titer Blue) during lipid/metabolic insult. Type of experiment: cell-based, human. The procedure:
The human neuroblastoma cell line, SH-SY5Y, was purchased from ATCC. Cell culture was performed according to manufacturer's specific guidelines. Cells were propagated in MEM containing 10% FBS. Neuronal differentiation was performed as described previously (32).
RA-SY5Y, at 2×10^4 cells/well, were seeded in 96-well microplates and treated for 48 h with a range of concentrations of MβCD, DMSO, ceramide, cholesterol or oleic acid to determine effective doses for 50-70% viability (data not shown), or in the presence of a range of concentrations of Leptin to determine effective doses to prevent cell death. Viability was assessed using the Cell-Titer Blue Viability Assay (Promega) by adding 20 μL of the reagent to each well for 4 h, and plates read by a microplate reader with fluorescence capabilities at Ex530-570 nm/Em580-620 nm. Viability was determined using a standard curve of known cell number and plotted as a percent of non-treated or vehicle control.
Doses of the lipids which decreased neuronal viability by 25-50% (Ceramide—25 μM; Cholesterol—27.5 μg/mL and Oleic Acid—30 μg/mL) after 18 h treatment (data not shown) were used to determine whether co-treatment with Leptin, an important modulator of lipid homeostasis, could attenuate the toxic effects of the insults (FIG. 1). RA-SY 5Y were treated for 18 h with either a low (10 ng/mL; gray bars) or moderate (100 ng/mL; black bars) dose of Leptin or control (white bars) in the presence or absence of ceramide, cholesterol or oleic acid, and cell viability measured. All lipid insults induced a significant (p<0.05) decrease in cell viability in the range of 35±15% when treated with control alone.

Another experiment concerns Aβ(1-40). The experiment in a line: Extracellular Aβ(1-40) ELISA in culture media of SY5Y cells stably over-expressing human APP751. As to conditions: Leptin 100 ng/mL, 18 h, SY5Y APP751, with ceramide, cholesterol or oleic acid; FIG. 4. It counts as cell-based. The procedure:
To generate SY5Y stably over-expressing amyloid precursor protein (APP), cells were transfected with a mammalian expression vector encoding the 751 amino acid isoform of human APP (APP751—Accession #NM 201413) (Origene Technologies; Rockville, Md.) using the FuOENE HD transfection reagent, according to manufacturer's specific instructions (Promega; Madison, Wis.). Briefly, cells were transiently transfected with APP751 or vehicle for 48 h and then switched into selection medium containing a concentration range of the antibiotic 0418 (100-600 μg/mL) to determine the optimal dose for stable selection. Selection media was changed every 3 days to remove non-viable cells. After 3 weeks, 200 μg/mL 0418 yielded distinct colonies while all vehicle-transfected cells were non-viable. […] Aβ(1-40) levels in cell culture media from SY5YAPP751 cells treated for 18 h with the aforementioned metabolic insults in the presence or absence of Leptin, were determined using the Human βAmyloid 1-40 ELISA kit (Invitrogen; Carlsbad, Calif.), and phospho- and total tau levels in RASY5Y lysates were determined using the Human Tau pSer396, pThr231 and Total Tau ELISA kits (Invitrogen) according to manufacturer's specific instructions. Aβ(1-40), phosho- and total tau levels were calculated from a standard curve developed with OD at 450 nm using 8 serial dilutions of known concentration. […]

For experiment [3] the following is noted: transgenic model of AD; cited from earlier work.

The source of these data is patent US20140088000A1, “Leptin Rescues Neurons from Alzheimer's Disease Related Pathways Triggered by Lipid Burden” (Neurotez, Inc., priority 2012, published 2014).

As for `CC(C)CCC[C@@H](C)[C@H]1CC[C@H]2[C@@H]3CC=C4C[C@@H](O)CC[C@]4(C)[C@H]3CC[C@]12C` [Cholesterol, cholesterol, reference compound], the “effect of lipid insult on tau phosphorylation (pTau231, pTau396)” value with tau was “induced significant (p<0.05) increases in tau phosphorylation at either epitope”. In addition, the “effect of lipid insult on AMPK activity” value in experiment [1] (cholesterol 27.5 μg/mL, no Leptin) is given as “significantly (p<0.05) suppress”.

`CCCCCCCC/C=C\CCCCCCCC(=O)O` [Oleic Acid, oleic acid]: the “effect of lipid insult on tau phosphorylation (pTau231, pTau396)” value in the experiment with tau is on record as “induced significant (p<0.05) increases in tau phosphorylation at either epitope”.

As for “Leptin: recombinant human Leptin purchased from Sigma-Aldrich; adipocyte-derived helical protein hormone”, in the experiment with Aβ, the “amount of Aβ secreted into the medium” value was “reduces the amount of Aβ secreted into the medium in a time- and dose-dependent fashion”. Moreover, the “reduction of body weight” value in experiment [2] was 30%. The “tau hyperphosphorylation under lipid insult with Leptin” value in the experiment on tau (Leptin 100 ng/mL simultaneous treatment, oleic acid insult (far right group)) was “significantly (p<0.05) prevented this hyperphosphorylation”. For the same compound, the “SIRT activity under lipid insult with Leptin” value in the experiment on sirtuins (SIRT) is “significantly (p<0.05) boost both AMPK and SIRT activity in response to all lipid insults, with the exception of ceramide for SIRT”. The “cell viability under lipid insult, low dose Leptin” value in the experiment with RA-SY5Y cells (Leptin 10 ng/mL, 18 h, with ceramide, cholesterol or oleic acid, FIG. 1) is given as “significantly (p<0.05) improve viability only in response to the cholesterol insult”. For the same compound, the “cell viability under lipid insult, moderate dose Leptin” value with RA-SY5Y cells (Leptin 100 ng/mL, 18 h, with ceramide, cholesterol or oleic acid, FIG. 1) is on record as “significantly (p<0.05) improved viability in response to all challenges”. In addition, in the experiment on RA-SY5Y cells (Leptin 1000 ng/mL, versus 100 ng/mL group, data not shown), the “cell viability under lipid insult, high dose Leptin” value is on record as “not significantly (p>0.05) different from the moderate group's viability”. In addition, the “extracellular Aβ(1-40) levels under lipid insult with Leptin” value in the experiment with Aβ(1-40) is “significantly (p<0.05) reduced Aβ(1-40) levels as similar to control”. For the same compound, in experiment [3], the cognitive performance result is recorded as “improves cognitive performance”; the “tau phosphorylation and Aβ production” value was “reduces both tau phosphorylation and Aβ production”. Further, the “AMPK activity under lipid insult with Leptin” value in experiment [1] (Leptin 100 ng/mL, with ceramide, cholesterol or oleic acid) is “significantly (p<0.05) boost both AMPK and SIRT activity in response to all lipid insults”.
